According to patent US11267842B2, “Enzymatic modification of nucleic acids” (The Regents of the University of California, priority 2015, dated 2022):

Key:
[1] = target: T1, streptavidin M-280 DYNABEADS (Streptomyces avidinii, UniProt P22629); assay: DYNABEADS streptavidin pull-down of PreQ1-Biotin modified transcripts; format: binding; conditions: mCherry-TAG vs mCherry-TAGΔC after TGT labeling (FIGS. 3C and 10)
T1 construct: purchased Life Technologies M280
Description: DYNABEADS® Streptavidin pull-down of PreQ1-Biotin modified transcripts. mCherry-TAG and mCherry-TAGΔC transcripts was incubated in a mixture of 1 μM RNA, 100 μM preQ1-Biotin, and 1 μM TGT (omitted in control samples) in TGT reaction buffer at 37° C. for 4 hours. 1 unit of RNAseIn (Promega, Madison, Wis.) was added to the reaction to prevent transcript degradation. Samples were drop dialyzed through 0.02 μm MF-Millipore membrane filter (Millipore, Billerica, Mass.) using 25 mL Milli-Q water and subsequently ethanol precipitated by addition of 10% volume of 3M sodium acetate and 2.5 volumes 95% ethanol and incubation at […] overnight. After centrifugation at 4° C. (16,100 g, 30 min), the resulting RNA pellet was resuspended in water, and the concentration of RNA was quantified.
Streptavidin M280 DYNABEADS® (Life Technologies, Carlsbad, Calif.) were washed according to manufacturer's instructions for RNA applications using binding and washing (B&W) buffer. Beads were blocked in B&W buffer with yeast tRNA (0.1 mg/100 uL of beads). Following the blocking step, beads were washed twice with B&W buffer. Pull down was then performed by incubation of 1 μg of prepared RNA with 10 uL of washed beads in B&W buffer at room temperature for 30 minutes with constant rotation. The beads were then washed three times with B&W buffer. […] Samples were then analyzed by 4% denaturing PAGE.

streptavidin = target: T2, streptavidin (Streptomyces avidinii, UniProt P22629); assay: Streptavidin gel shift of RNA hairpins modified with PreQ1-Biotin; format: binding; conditions: ECY-A1 vs ECY-A1ΔC, with and without TGT; 15% denaturing PAGE (FIG. 2C)
T2 construct: purchased Life Technologies
T2 sequence (P22629 25-183): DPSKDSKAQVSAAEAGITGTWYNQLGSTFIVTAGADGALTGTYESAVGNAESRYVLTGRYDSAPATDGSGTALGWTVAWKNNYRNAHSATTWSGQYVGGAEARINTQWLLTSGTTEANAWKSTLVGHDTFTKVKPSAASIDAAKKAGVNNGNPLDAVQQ
Description: Streptavidin gel shift of RNA hairpins. ECY-A1 RNA and ECY-A1ΔC was incubated in a mixture of 10 μM RNA, 100 μM preQ1-Biotin, and 1 μM TGT (omitted in control samples) in TGT reaction buffer at 37° C. for 24 hours. After the reactions were complete, the RNA was precipitated by addition of 10% volume of 3M sodium acetate and 2.5 volumes 95% ethanol and incubation at −20° C. overnight. After centrifugation at 4° C. (16,100 g, 30 min), the resulting RNA pellet was resuspended in water, and the concentration of RNA was quantified. The prepared RNA was then incubated in the presence of streptavidin (Life Technologies, Carlsbad, Calif.) at 37° C. for 1 hour in a mixture containing the following: 10 mM Tris (pH 8.1), 2.5 μM RNA, and 50 μM streptavidin. 1X RNA loading dye (NEB, Ipswitch, Mass.) was added to the sample (without heat denaturation) and samples were analyzed by 15% denaturing PAGE.

[2] = target: T3, bacterial (E.coli) tRNA guanine transglycosylase (TGT) (Escherichia coli, UniProt P0A847); assay: TGT-catalyzed incorporation of PreQ1 analogs into RNA oligonucleotide hairpins (LC / HRMS); format: biochemical
T3 construct: His6 (C); made in house; host or cells: E. coli BL21
T3 sequence (P0A847 whole entry, added parts left off): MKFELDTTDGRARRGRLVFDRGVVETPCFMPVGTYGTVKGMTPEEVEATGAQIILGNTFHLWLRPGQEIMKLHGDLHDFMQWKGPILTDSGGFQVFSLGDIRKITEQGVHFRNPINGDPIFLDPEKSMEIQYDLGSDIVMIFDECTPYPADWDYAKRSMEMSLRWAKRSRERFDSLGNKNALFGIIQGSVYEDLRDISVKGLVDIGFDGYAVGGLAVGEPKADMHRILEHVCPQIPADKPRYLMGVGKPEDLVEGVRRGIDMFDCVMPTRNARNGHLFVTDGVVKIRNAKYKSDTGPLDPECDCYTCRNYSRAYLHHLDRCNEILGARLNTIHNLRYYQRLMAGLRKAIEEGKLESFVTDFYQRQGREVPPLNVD
Description: General TGT reaction with RNA oligonucleotide hairpins TGT reaction conditions were adapted from a previously reported literature procedure.^1 An eppendorf tube containing 10 μM RNA oligonucleotide, 100 μM PreQ1 analog, and 10 μM TGT enzyme were prepared in a final volume of 50 μL of TGT reaction buffer. The reactions were incubated at 37° C. for a minimum of 2 hours. The reactions were halted by chilling samples to 4° C. or freezing at −80° C. until purified or analyzed.
Liquid chromatography and mass spectroscopy analysis of preQ1 modified RNA hairpins. Samples were first prepared according to the general procedure. Samples were allowed to react for 6 hours and frozen at −80° C. until analyzed (PreQ1-Biotin required 24 hours for completion). Samples were diluted 1:2 with milli-Q water and injected onto a clarity Oligo-MS column (Phenomenex, Torrance, Calif.) and analyzed by HPLC according to the following gradient: (A=Milli-Q water containing 20% hexafluoroisopropanol (HFIP) and 0.1% TEA, B=methanol), Initial conditions 95% A, 5% B, hold 2 min then a linear gradient starting at 2 min and ending at 10 min with 45% A, 55% B. Samples were monitored at 260 nm as well as either 505 nm or 700 nm as appropriate when fluorophore PreQ1 analogs were employed. HRMS samples were collected in negative ion mode and analyzed in a similar manner by combining the mass spectrum traces across the peak of interest. Raw mass spectrum were deconvoluted using MagTran software package v.

[3] = target: T3, bacterial (E.coli) tRNA guanine transglycosylase (TGT); assay: Fluorescence emission spectra of PreQ1-TO probe turn-on with mCherry-TAG RNA; format: biochemical
Description: Fluorescence emission spectra of PreQ1-TO probe turn-on with mCherry-TAG RNA. Fluorescence emission spectra were collected in a similar fashion to that described previously for the short RNA hairpins. 25 μL reactions were setup with 10 μM TGT enzyme, 20 μM PreQ1-TO, and 100 nM transcript RNA and incubated at 37° C. for 2 hours. Samples were then diluted 30-fold and measured under the same conditions and parameters as that of the short hairpins.

[4] = target: T3, bacterial (E.coli) tRNA guanine transglycosylase (TGT); assay: Fluorescence emission spectra of PreQ1-TO probe turn-on with ECY-A1 hairpin; format: biochemical; conditions: RNA hairpin ECY-A1; normalized to PreQ1-TO in the absence of RNA and TGT (FIG. 2B)
Description: Fluorescence emission spectra of PreQ1-TO probe turn-on with ECY-A1 hairpin. Samples of ECY-A1, ECY-A1ΔC, and ECY-X1 were first prepared in a similar fashion to the general protocol except only 20 μM PreQ1-TO was employed to avoid non-specific binding to the hairpins. Samples were allowed to react for 2 hours, verified to be at completion by HPLC, and diluted 30-fold into TGT reaction buffer. Spectra were then collected on a Fluoromax-P spectrophotometer by excitation at 501 nm and scanning emission from 510 to 600 nm with excitation and emission slit width at 5 nm and an integration time of 1 s. All spectra were background subtracted from TGT reaction buffer and Normalized against the fluorescence intensity values of a sample containing an analogous concentration of PreQ1-TO (0.667 μM) in TGT reaction buffer.

[5] = system: mCherry-TAG RNA endogenously expressed in CHO cells; assay: Fixed cell labeling of endogenously expressed mCherry-TAG transcript; format: cell-based, Chinese hamster; conditions: 50 μM PreQ1-Cy7, with TGT and mCherry-TAG plasmid vs controls without (FIG. 4)
Description: Fixed Cell Labeling of Endogenously Expressed mCherry-ECY-A1 Transcript. Chinese Hamster Ovary (CHO) cells (CRL-9606, ATCC, Manassas, Va.) were cultured in Ham's F-12K media (Life Technologies, Carlsbad, Calif.) and kept under 20 passages from the ATCC standard line. CHO cells were plated at an initial density of 10,000 cells per well in a Nunc Lab-Tek 8 well chamber slide (Thermo Scientific, Waltham, Mass.). Cells were allowed to adhere overnight and washed with Opti-MEM media (Life Technologies, Carlsbad, Calif.) and subsequently transfected with […] of mCherry-TAG plasmid per well with 1.5 μL of Lipofectamine® 2000 (Life Technologies, Carlsbad, Calif.) in Opti-MEM as per manufacture's protocol. Control wells lacking transfection were treated and washed with Opti-MEM in the absence of DNA and lipofectamine®. After overnight transfection, the cells were washed twice with PBS (200 μL each) and fixed with 100 μL of a 3.7% paraformaldehyde in PBS solution for 10 minutes at room temperature. Cells were then permeabilized by treatment with 100 μL of 0.1% Triton X-100 in PBS for 20 minutes at room temperature and washed 2×200 μL with fresh PBS. Cells were then treated for four hours at 37° C. with 100 μL of TGT reaction buffer containing 50 μM PreQ1-Cy7 either with or without 10 μM TGT enzyme added. […] Images were subsequently analyzed and processed using ImageJ (NIH, rsbweb.nih.gov).

[6] = target: T3, bacterial (E.coli) tRNA guanine transglycosylase (TGT); format: biochemical; conditions: TGT present; 4% denaturing PAGE (FIG. 3A, FIG. 7)
Description: General labeling reaction procedure for fluorescence spectra and gel analysis. A 25 μL reaction was setup in a small eppendorf tube containing 100 nM RNA transcript, 50 μM PreQ1 analog, and 1μM TGT in TGT reaction buffer. 1 unit of RNaseln (Promega, Madison, Wis.) was added to each reaction to prevent degradation of the transcript. The reaction was allowed to proceed for 4 hours, after which the sample was cooled to 4° C. and either used directly or stored at −80° C. until further analyzed.
Gel Analysis of TGT reactions with PreQ1 analogs. […] After the reactions were complete, the RNA was precipitated by addition of 10% volume of 3M sodium acetate and 2.5 volumes 95% ethanol. The samples were then precipitated at −80° C. for 2 hours after which they were centrifuged at 16,100 g for 30 minutes at 4° C. The ethanol was carefully pipetted away and the RNA pellet was allowed to air dry for 10 minutes on the bench. The pellet was resuspended in 10 μL of 1X RNA loading dye (NEB, Ipswitch, Mass.), heated to 95° C. for 2 minutes, placed on ice for 20 minutes, and subsequently loaded into a freshly poured denaturing 4% polyacrylamide gel (4% polyacrylamide in 1X TBE buffer with 8% urea) and run at 120 V for approximately 2 hours until the xylene cyanol blue dye had reached the bottom of the gel. […]

T1 sequence (P22629 25-183): as the sequence (P22629 25-183) above

Nc1nc2[nH]cc(CNCCOCCOCCOCCNC(=O)CCCC[C@@H]3SC[C@@H]4NC(=O)N[C@@H]43)c2c(=O)[nH]1 [PreQ1-Biotin]
RNA recovered in streptavidin pull-down [1]: single RNA band corresponding to transcript only when mCherry transcript contained the ECY-A 1 hairpin
streptavidin gel shift of ECY-A1 modified by TGT (streptavidin): biotin remains functional as an affinity tag
reaction time required for completion of TGT labeling of ECY-A1 ([2]; 37° C., other analogs 6 hour incubation): 24 h

CN1/C(=C/c2cc[n+](CCCCCC(=O)NCCOCCOCCOCCNCc3c[nH]c4nc(N)[nH]c(=O)c34)c3ccccc23)Sc2ccccc21.O=C[O-] [PreQ1-TO]
fluorescence intensity with in vitro transcribed mCherry-TAG RNA ([3]; TGT present vs absent (FIG. 3B)): significant increase in fluorescence intensity
fluorescence turn-on with mCherry-TAGΔC transcript ([3]; in the presence of enzyme): negligible fluorescence turn-on
increase in TO fluorescence intensity upon covalent incorporation [4]: ~40 fold
RNA substrate selectivity of incorporation ([2]; ECY-A1 compared with ECY-A1ΔC and ECY-X1 (FIG. 20B)): selectively incorporated into ECY-A1
incorporation of PreQ1-TO into alternative RNA hairpins ([2]; RNA hairpins ECY-A1ΔC and ECY-X1, with TGT, by LC/MS): unable to detect incorporation

CN1/C(=C/C=C2C=C(/C=C/C3=[N+](CCCCCC(=O)NCCOCCOCCOCCNCc4c[nH]c5nc(N)[nH]c(=O)c45)c4ccccc4C3(C)C)CCC/2)C(C)(C)c2ccccc21.O=C[O-] [PreQ1-Cy7]
staining of fixed, permeabilized CHO cells [5]: significantly greater staining of fixed cells
fluorescent labeling of mCherry-TAG transcript [6]: labeling of the transcript took place
